According to patent US5977063A, “Alkylated hexapeptides” (Eli Lilly and Company, priority 1998, dated 1999):

Assays:
Type in all cases: cell-based
[1] = tested on: Staphylococcus epidermidis 270; experiment: MIC, standard broth micro-dilution assay, SE 270; set-up: unit not given here
Procedure: (§1) The antibacterial efficacy of the present compounds is illustrated by Table II. The minimal inhibitory concentrations (MICs) were determined using a standard broth micro-dilution assay.

[2] = tested on: Staphylococcus haemolyticus 415; experiment: MIC, standard broth micro-dilution assay, SH 415; set-up: unit not given here
Procedure: as §1

[3] = tested on: Staphylococcus aureus 447; experiment: MIC, standard broth micro-dilution assay, SA 447; set-up: unit not given here
Procedure: as §1

[4] = tested on: Streptococcus pyogenes C203; experiment: MIC, standard broth micro-dilution assay, SPY C203; set-up: unit not given here
Procedure: as §1

[5] = tested on: Streptococcus pneumoniae P1; experiment: MIC, standard broth micro-dilution assay, SPN P1; set-up: unit not given here
Procedure: as §1

[6] = tested on: Enterococcus faecium and faecalis (RESISTANT); conditions: geometric mean of 4-6 isolates
Procedure: as §1

[7] = tested on: Enterococcus faecium and faecalis (SENSITIVE); experiment: MIC, standard broth micro-dilution assay, SENSITIVE enterococci; set-up: unit not given here; conditions: geometric mean of 4-6 isolates
Procedure: as §1

[8] = tested on: Staphylococcus haemolyticus 105; experiment: MIC, standard broth micro-dilution assay, SH 105; set-up: unit not given here
Procedure: as §1

[9] = tested on: Staphylococcus aureus 489; experiment: MIC, standard broth micro-dilution assay, SA 489; set-up: unit not given here
Procedure: as §1

[10] = tested on: Staphylococcus aureus 446; experiment: MIC, standard broth micro-dilution assay, SA 446; set-up: unit not given here
Procedure: as §1

SMILES	Minimal Inhibitory Concentration (MIC) SE 270 [1]	Minimal Inhibitory Concentration (MIC) SH 415 [2]	Minimal Inhibitory Concentration (MIC) SA 447 [3]	Minimal Inhibitory Concentration (MIC) SPY C203 [4]	Minimal Inhibitory Concentration (MIC) SPN P1 [5]	Minimal Inhibitory Concentration (MIC) RESISTANT [6]	Minimal Inhibitory Concentration (MIC) SENSITIVE [7]	Minimal Inhibitory Concentration (MIC) SH 105 [8]	Minimal Inhibitory Concentration (MIC) SA 489 [9]	Minimal Inhibitory Concentration (MIC) SA 446 [10]
CCCCCCN[C@H]1C(=O)N[C@@H](CC(N)=O)C(=O)N[C@H]2C(=O)N[C@H]3C(=O)N[C@H](C(=O)N[C@H](C(=O)O)c4cc(O)cc(O)c4-c4cc3ccc4O)[C@H](O[C@H]3C[C@](C)(N)[C@@H](O)[C@H](C)O3)c3ccc(c(Cl)c3)Oc3cc2cc(c3O[C@@H]2O[C@H](CO)[C@@H](O)[C@H](O)[C@H]2O[C@H]2C[C@](C)(N)[C@@H](O)[C@H](C)O2)Oc2ccc(cc2Cl)[C@H]1O [Example 10, N^1 -n-HEXYLDESLEUCYL-A82846B]	32	64	32	16	32	> 128	> 128	64	16	32
CCCCCCN[C@H]1C(=O)N[C@@H](CC(N)=O)C(=O)N[C@H]2C(=O)N[C@H]3C(=O)N[C@H](C(=O)N[C@H](C(=O)O)c4cc(O)cc(O)c4-c4cc3ccc4O)[C@H](O[C@H]3C[C@](C)(N)[C@@H](O)[C@H](C)O3)c3ccc(c(Cl)c3)Oc3cc2cc(c3O[C@@H]2O[C@H](CO)[C@@H](O)[C@H](O)[C@H]2O[C@H]2C[C@](C)(NCc3ccc(-c4ccccc4)cc3)[C@@H](O)[C@H](C)O2)Oc2ccc(cc2Cl)[C@H]1O [Example 11, N^1 -n-HEXYL-N^DISACC -(p-PHENYLBENZYL)-DESLEUCYL-A82846B]	0.5	1	0.5	0.125	0.125	27	11	2	1	1
C[C@@H]1O[C@@H](O[C@H]2[C@H](Oc3c4cc5cc3Oc3ccc(cc3Cl)[C@@H](O[C@H]3C[C@](C)(N)[C@@H](O)[C@H](C)O3)[C@@H]3NC(=O)[C@H](NC(=O)[C@@H]5NC(=O)[C@H](CC(N)=O)NC(=O)[C@H](NCc5ccccc5)[C@H](O)c5ccc(c(Cl)c5)O4)c4ccc(O)c(c4)-c4c(O)cc(O)cc4[C@@H](C(=O)O)NC3=O)O[C@H](CO)[C@@H](O)[C@@H]2O)C[C@](C)(N)[C@H]1O [Example 12, N^1 -BENZYLDESLEUCYL-A82846B]	> 64	> 64	> 64	2	2	> 128	128	> 64	64	> 64
C[C@@H]1O[C@@H](O[C@H]2[C@H](Oc3c4cc5cc3Oc3ccc(cc3Cl)[C@@H](O[C@H]3C[C@](C)(N)[C@@H](O)[C@H](C)O3)[C@@H]3NC(=O)[C@H](NC(=O)[C@@H]5NC(=O)[C@H](CC(N)=O)NC(=O)[C@H](NCc5ccc(O)cc5)[C@H](O)c5ccc(c(Cl)c5)O4)c4ccc(O)c(c4)-c4c(O)cc(O)cc4[C@@H](C(=O)O)NC3=O)O[C@H](CO)[C@@H](O)[C@@H]2O)C[C@](C)(N)[C@H]1O [Example 13, N^1 -(p-HYDROXYBENZYL)-DESLEUCYL-A82846B]	32	> 64	32	0.25	≤ .06	54	4	> 64	8	16
C[C@@H]1O[C@@H](O[C@H]2[C@H](Oc3c4cc5cc3Oc3ccc(cc3Cl)[C@@H](O[C@H]3C[C@](C)(N)[C@@H](O)[C@H](C)O3)[C@@H]3NC(=O)[C@H](NC(=O)[C@@H]5NC(=O)[C@H](CC(N)=O)NC(=O)[C@H](NCCCCCCc5ccccc5)[C@H](O)c5ccc(c(Cl)c5)O4)c4ccc(O)c(c4)-c4c(O)cc(O)cc4[C@@H](C(=O)O)NC3=O)O[C@H](CO)[C@@H](O)[C@@H]2O)C[C@](C)(N)[C@H]1O [Example 14, N^1 -(6-PHENYL-n-HEXYL)DESLEUCYL-A82846B]	8	8	8	≤ .06	≤ .06	> 50	37	8	8	16
C[C@@H]1O[C@@H](O[C@@H]2c3ccc(c(Cl)c3)Oc3cc4cc(c3O[C@@H]3O[C@H](CO)[C@@H](O)[C@H](O)[C@H]3O[C@H]3C[C@](C)(NCCCCCCc5ccccc5)[C@@H](O)[C@H](C)O3)Oc3ccc(cc3Cl)[C@@H](O)[C@@H](NCCCCCCc3ccccc3)C(=O)N[C@@H](CC(N)=O)C(=O)N[C@H]4C(=O)N[C@H]3C(=O)N[C@@H]2C(=O)N[C@H](C(=O)O)c2cc(O)cc(O)c2-c2cc3ccc2O)C[C@](C)(N)[C@H]1O [Example 15, N^1,N^DISACC -BIS(6-PHENYL-n-HEXYL) -DESLEUCYL-A82846B]	2	2	2	0.125	0.5	8	6	1	2	4
C[C@@H]1O[C@@H](O[C@@H]2c3ccc(c(Cl)c3)Oc3cc4cc(c3O[C@@H]3O[C@H](CO)[C@@H](O)[C@H](O)[C@H]3O[C@H]3C[C@](C)(NCCCCCCCCCCc5ccccc5)[C@@H](O)[C@H](C)O3)Oc3ccc(cc3Cl)[C@@H](O)[C@@H](NCCCCCCCCCCc3ccccc3)C(=O)N[C@@H](CC(N)=O)C(=O)N[C@H]4C(=O)N[C@H]3C(=O)N[C@@H]2C(=O)N[C@H](C(=O)O)c2cc(O)cc(O)c2-c2cc3ccc2O)C[C@](C)(N)[C@H]1O [Example 16, N^1,N^DISACC -BIS(10 PHENYL-n-DECYL)-DESLEUCYL-A82846B]	> 64	> 64	> 64	8	16	> 128	> 11	> 64	64	> 64
C[C@@H]1O[C@@H](O[C@@H]2c3ccc(c(Cl)c3)Oc3cc4cc(c3O[C@@H]3O[C@H](CO)[C@@H](O)[C@H](O)[C@H]3O[C@H]3C[C@](C)(NCc5ccc(-c6ccccc6)cc5)[C@@H](O)[C@H](C)O3)Oc3ccc(cc3Cl)[C@@H](O)[C@@H](NCc3ccc(O)cc3)C(=O)N[C@@H](CC(N)=O)C(=O)N[C@H]4C(=O)N[C@H]3C(=O)N[C@@H]2C(=O)N[C@H](C(=O)O)c2cc(O)cc(O)c2-c2cc3ccc2O)C[C@](C)(N)[C@H]1O [Example 17, N^1 -(p-HYDROXYBENZYL)-N^DISACC -(p-PHENYLBENZYL)-DESLEUCYL-A82846B]	0.5	1	0.5	≤ .06	≤ .06	27	2.6	0.5	1	1
C[C@@H]1O[C@@H](O[C@H]2[C@H](Oc3c4cc5cc3Oc3ccc(cc3Cl)[C@@H](O[C@H]3C[C@](C)(N)[C@@H](O)[C@H](C)O3)[C@@H]3NC(=O)[C@H](NC(=O)[C@@H]5NC(=O)[C@H](CC(N)=O)NC(=O)[C@H](NCCCCCCCCCCc5ccccc5)[C@H](O)c5ccc(c(Cl)c5)O4)c4ccc(O)c(c4)-c4c(O)cc(O)cc4[C@@H](C(=O)O)NC3=O)O[C@H](CO)[C@@H](O)[C@@H]2O)C[C@](C)(N)[C@H]1O [Example 18, N^1 -(10-PHENYL-n-DECYL)DESLEUCYL-A82846B]	4	2	2	0.25	0.5	19	12	4	2	2
